Results published in patent US20090227606A1, “Methods for Preventing or Treating Acute and Chronic Pain” (priority 2006, published 2009).
“Also recorded” adds a separate entry of the source.

What was measured:
[1] = system: GLAST; assay: Western blot of ipsilateral lumbar spinal cord, GLAST protein; format: in vivo, rat; conditions: day 12 post-transection
Description: Tissue was collected from 4-5 rats/group on postoperative days 4 or 12. In order to obtain both mRNA and protein from the same tissue sample, the L5 region of the spinal cord (ipsilateral to the injury), was isolated and placed in PBS supplemented with protease inhibitor cocktail (1:1000, Sigma Chemical Co., St. Louis, Mo.) and RNase inhibitor (0.75 U/μL Ambion, Austin, Tex.). Samples were sonicated in five one-second bursts at half-maximal power, centrifuged at 6500 rpm for 15 minutes at 4° C. Protein-containing supernatants were collected and stored at −80° C. until further processing by Western blot analysis. The pellet was treated with TRIzol reagent (Invitrogen, Carlsbad, Calif.) for the extraction of total RNA according to the manufacturer's specifications.
Protein obtained from L5 lumbar spinal cord was quantified using the Lowry method (DC assay, Bio-Rad, Hercules, Calif.). Forty micrograms of protein and standard protein markers were subjected to SDS polyacrylamide gel electrophoresis (7.5% gel, Bio-Rad, Hercules, Calif.) and id transferred to polyvinylidene difluoride (PVDF, Bio-Rad, Hercules, Calif.) filters. Nonspecific binding was blocked by incubation with 5% milk/PBS-T at room temperature for 1 hour followed by incubation overnight at 4° C. with monoclonal guinea pig anti-GLT-1 or guinea pig anti-GLAST (1:2500, Chemicon). […]

[2] = system: GLT-1 mRNA; assay: Real Time RT-PCR of cultured astrocytes, GLT-1 mRNA; format: cell-based, rat
Description: (§1) After approximately 14 days (2 days after subplating into plates, DIV 14) astrocytes had formed a confluent monolayer. […] Phase contrast microscopy was then carried out in order to assess the morphology of cells after the various treatments. Length of astrocyte processes was quantified by measuring all processes in 2-3 phase contrast images/group by an independent observer, blinded to the treatment groups using Image J v1.34s (National Institutes of Health, Bethesda, Md.).
Total RNA was isolated from astrocyte cultures using the Qiagen RNeasy mini-kit (Qiagen Inc., Valencia, Calif.) according to the manufacturer's protocol for isolation of total RNA from animal cells. Reverse transcription (RT) was carried out using the high-capacity cDNA archive kit (Applied Biosystems, Foster City, Calif.) according to the vendor's protocol. Real-time RT-PCR reactions were carried out in a total reaction volume of 25 μL containing a final concentration of 1.5 U Platinum Taq DNA polymerase (Invitrogen Corporation, Carlsbad, Calif.); 20 mM Tris HCl (pH 8.4); 50 mM KCl; 3 mM MgCl2; 200 μM dGTP, dCTP, and dATP; 400 μM dUTP and 1 U of UDG (uracyl DNA glycosylase); 900 nM of forward and reverse primers; 300 nM Taqman probe; and 5 μL of cDNA (50 ng) from the RT step. The iCycler™ Multicolor Real-Time PCR detection system (Bio-Rad Laboratories, Hercules, Calif.) was used to quantify PCR product. The fluorescence and threshold values (CT) obtained were used to compare the relative amount of target mRNA in experimental groups to those of controls using the 2^−ΔΔC^T method (Livak, K. J. and T. D. Schmittgen. 2001. Methods 25:402-408). Each experiment was run twice and samples were run in duplicate. For each sample, the mean CT value for the control gene (GAPDH) was then subtracted from the mean CT value for the gene of interest (GLT-1, GLAST) to obtain a ΔCT value. The ΔCT values for the control group (untreated) were then averaged and subtracted from the ΔCT for the experimental groups to obtain the ΔΔCT. The relative fold change from control was then expressed by calculation of 2^−ΔΔC^T for each sample and the results are expressed as the group mean fold change±SEM.

[3] = system: primary cultured astrocytes; assay: Astrocyte morphology and process length, phase contrast microscopy; format: cell-based, rat; conditions: 3 days or 7 days of treatment, phase contrast microscopy
Description: Astrocyte cultures were prepared from the cortices of neonatal rats (1-3 days old) using the Worthington Papain Dissociation System (Worthington Biochemical Corporation, Lakewood, N.J.) according to the method of Huettner and Baughman (1986. J. Neurosci. 6:3044-3060). Briefly, cortices of neonatal rats were dissected, treated with papain (20 U/ml), dissociated by trituration and plated in 75 cm^2 flasks in Dulbecco's modified Eagle's medium (DMEM) supplemented with 10% charcoal-stripped fetal bovine serum (FBS), 1% GlutaMax and 1% penicillin/streptomycin (P/S, 100 U/ml penicillin, 100 μg/ml streptomycin, P/S). Cells were fed twice weekly until they reached confluence (Day in vitro, DIV 10-12) at which point they were mechanically shaken for 1 hr on an orbital shaker to remove any remaining oligodendrocytes and microglia. Subsequently, cultures were treated with trypsin for 30 minutes at 37° C. and re-plated into 6 or 12-well dishes at a density of about 3.0×10^4 cells/cm^2. Resultant cultures were greater than 95% astrocytic as determined by GFAP immunostaining.
as §1

CCCn1cnc2c1c(=O)n(CCCCC(C)=O)c(=O)n2C [propentofylline]
GLAST protein [1]: further decreased by propentofylline treatment; also recorded: slight decrease
increase in GLT-1 mRNA ([2]; day 3, high dose): 3 fold
induction of GLT-1 mRNA ([2]; day 7, high dose): 20 fold
GLT-1 mRNA level, in words ([2]; propentofylline 10, 100, 1000 μM, db-cAMP 250 μM, relative to GAPDH): enhancement of GLT-1 and GLAST mRNA levels in a dose-dependent manner; also recorded: dose-dependently induced GLT-1 and GLAST at the mRNA level
astrocyte morphology [3]: dose-dependent shift from a flat, polygonal shape to a stellate, process-bearing shape
